In US10683299B2, “Pyrazolopyrazine and triazolopyrazine compounds for the treatment of infectious diseases” (Hoffmann-La Roche Inc., priority 2017, dated 2020):

The compounds below were run on HBV replication in HepG2.2.15 cells (assay: HBV inhibition assay in HepG2.2.15 cells (extracellular HBV DNA by qPCR)). Conditions: Hepatitis B virus, HepG2.2.15, 120 h, five days after compound treatment, extracellular HBV DNA in culture supernatant by qPCR, read-out: EC50 (effective compound concentration at which HBV replication was inhibited by 50%).
Assay type: cell-based, Hepatitis B virus
Source text: HepG2.2.15 is a stably-transfected cell line containing the HBV genome. It is derived from the hepatoblastoma cell line Hep G2 (American Type Culture Collection, ATCC® HB-8065™) by the published procedures described in reference: M A Selles et al. Proc. Natl. Acad. Sci. USA 1987, 84, 1005-1009. The cell line was maintained in Dulbecco's modified Eagle's medium and nutrient mixture F-12 (DMEM/F-12, Gibco, Cat. #: 11320-033) supplemented with 10% fetal bovine serum (Gibco, Cat. #:10099-141), 100 U/mL penicillin, 100 μg/mL streptomycin (Gibco, Cat. #:15140-122), and 0.3 mg/mL of G418 Sulfate (Gibco, Cat. #: 10131-027).
HepG2.2.15 cells were seeded into 96-well plates at a density of 3×10^4 cells per well in culture media of 100 μL DMEM/F-12 supplemented with 2.5% fetal bovine serum, 100 U/mL penicillin, 100 μg/mL streptomycin and cultured overnight at 37° C. The test compounds were serially half-log diluted in DMSO, then diluted 100 times in culture media. 100 μL culture media containing diluted compounds were added into the plates to reach 0.5% final concentration of DMSO in every well. Five days after compound treatment, culture supernatant was collected for further analysis.
For quantitative PCR detection of extracellular HBV DNA, culture supernatant was processed by 500 μg/mL Proteinase K (Sigma, Cat. #:P2308) digestion at 50° C. for 1 hour. After heat inactivation of the enzyme at 95° C. for 15 minutes, the samples were subjected to HBV DNA quantification by qPCR. The effective compound concentration at which HBV replication was inhibited by 50% (EC50) was determined.
Compound `C[C@H]1Cn2ncc(N3CCS3(=O)=O)c2CN1C(=O)Nc1cc(F)c(F)c(F)c1` [Example 25, (6S)-3-(1,1-dioxothiazetidin-2-yl)-6-methyl-N-(3,4,5-trifluorophenyl)-6,7-dihydro-4H-pyrazolo[1,5-a]pyrazine-5-carboxamide] has an EC50 of 0.14 µM.
`C[C@H]1Cn2ncc(N3CC(O)CNS3(=O)=O)c2CN1C(=O)Nc1cc(F)c(F)c(F)c1` (stereo partly drawn) [Example 26, (6S)-3-(4-hydroxy-1,1-dioxo-1,2,6-thiadiazinan-2-yl)-6-methyl-N-(3,4,5-trifluorophenyl)-6,7-dihydro-4H-pyrazolo[1,5-a]pyrazine-5-carboxamide] gave an EC50 of 0.13 µM.
For `C[C@H]1Cn2ncc(N3CCCNS3(=O)=O)c2CN1C(=O)Nc1cc(F)c(F)c(F)c1` [Example 27, (6S)-3-(1,1-dioxo-1,2,6-thiadiazinan-2-yl)-6-methyl-N-(3,4,5-trifluorophenyl)-6,7-dihydro-4H-pyrazolo[1,5-a]pyrazine-5-carboxamide], the EC50 was 0.044 µM.
For `CC1C(O)CS(=O)(=O)N1c1cnn2c1CN(C(=O)Nc1cc(F)c(F)c(F)c1)[C@@H](C)C2` (stereo partly drawn) [Example 28-1, (6S)-3-(4-hydroxy-3-methyl-1,1-dioxo-1,2-thiazolidin-2-yl)-6-methyl-N-(3,4,5-trifluorophenyl)-6,7-dihydro-4H-pyrazolo[1,5-a]pyrazine-5-carboxamide], the EC50 was 0.021 µM.
In the case of `CC1C(O)CS(=O)(=O)N1c1cnn2c1CN(C(=O)Nc1ccnc(C(F)F)c1)[C@@H](C)C2` (stereo partly drawn) [Example 29, (6S)—N-[2-(difluoromethyl)-4-pyridyl]-3-(4-hydroxy-3-methyl-1,1-dioxo-1,2-thiazolidin-2-yl)-6-methyl-6,7-dihydro-4H-pyrazolo[1,5-a]pyrazine-5-carboxamide], the EC50 is reported as 0.32 µM.
With `CC1C(Oc2ncccn2)CS(=O)(=O)N1c1cnn2c1CN(C(=O)Nc1cc(F)c(F)c(F)c1)[C@@H](C)C2` (stereo partly drawn) [Example 30, (6S)-6-methyl-3-(3-methyl-1,1-dioxo-4-pyrimidin-2-yloxy-1,2-thiazolidin-2-yl)-N-(3,4,5-trifluorophenyl)-6,7-dihydro-4H-pyrazolo[1,5-a]pyrazine-5-carboxamide] the EC50 was 0.0035 µM.
In the case of `COC1CS(=O)(=O)N(c2cnn3c2CN(C(=O)Nc2cc(F)c(F)c(F)c2)[C@@H](C)C3)C1C` (stereo partly drawn) [Example 31, (6S)-3-(4-methoxy-3-methyl-1,1-dioxo-1,2-thiazolidin-2-yl)-6-methyl-N-(3,4,5-trifluorophenyl)-6,7-dihydro-4H-pyrazolo[1,5-a]pyrazine-5-carboxamide], the EC50 is reported as 0.0097 µM.
`COC1CS(=O)(=O)N(c2cnn3c2CN(C(=O)Nc2ccnc(C(F)F)c2)[C@@H](C)C3)C1C` (stereo partly drawn) [Example 32-1, (6S)—N-[2-(difluoromethyl)-4-pyridyl]-3-(4-methoxy-3-methyl-1,1-dioxo-1,2-thiazolidin-2-yl)-6-methyl-6,7-dihydro-4H-pyrazolo[1,5-a]pyrazine-5-carboxamide] was tested, and the EC50 was 0.17 µM.
`C[C@H]1Cn2ncc(N3CCCS3(=O)=O)c2CN1C(=O)NCc1ccsc1` [Example 34, (6S)-3-(1,1-dioxo-1,2-thiazolidin-2-yl)-6-methyl-N-(3-thienylmethyl)-6,7-dihydro-4H-pyrazolo[1,5-a]pyrazine-5-carboxamide] showed an EC50 of 0.099 µM.
Work on `C[C@H]1Cn2ncc(N3CC(N4CCC[C@H]4C(=O)O)CS3(=O)=O)c2CN1C(=O)Nc1cc(F)c(F)c(F)c1` (stereo partly drawn) [Example 35, (2S)-1-[2-[(6S)-6-methyl-5-[(3,4,5-trifluorophenyl)carbamoyl]-6,7-dihydro-4H-pyrazolo[1,5-a]pyrazin-3-yl]-1,1-dioxo-1,2-thiazolidin-4-yl]pyrrolidine-2-carboxylic Acid] yielded an EC50 of 0.0067 µM.
For `C[C@H]1Cn2ncc(N3CC(c4ccccc4C(=O)O)CS3(=O)=O)c2CN1C(=O)Nc1cc(F)c(F)c(F)c1` (stereo partly drawn) [Example 36, 2-[2-[(6S)-6-methyl-5-[(3,4,5-trifluorophenyl)carbamoyl]-6,7-dihydro-4H-pyrazolo[1,5-a]pyrazin-3-yl]-1,1-dioxo-1,2-thiazolidin-4-yl]benzoic acid], the EC50 was 0.017 µM.

Same assay, conditions: five days after compound treatment, extracellular HBV DNA in culture supernatant by qPCR, read-out: EC50 (effective compound concentration at which HBV replication was inhibited by 50%)
With `CC1C(O)CS(=O)(=O)N1c1cnn2c1CN(C(=O)Nc1cc(F)c(F)c(F)c1)[C@@H](C)C2` (stereo partly drawn) [Example 28-2, (6S)-3-(4-hydroxy-3-methyl-1,1-dioxo-1,2-thiazolidin-2-yl)-6-methyl-N-(3,4,5-trifluorophenyl)-6,7-dihydro-4H-pyrazolo[1,5-a]pyrazine-5-carboxamide] the EC50 was 0.018 µM.
